Consider five substances from patent publication US8492341B2, “Amyloid-β binding peptides” (Alzyme Pty Ltd., priority 2006, dated 2013).

One series has as its target Aβ (Homo sapiens, UniProt P05067). Description: Copper-induced Aβ oligomer generation (SDS-PAGE, WO2 immunoblot). As to conditions: Aβ 5 uM, Cu+2 25 μM, 0-1000 μM peptide, 37 C, 24 hours; vs reverse peptide control. It is filed as biochemical. The procedure:
Incubation of Aβ with copper generates cross-linked oligomeric species (Atwood et al., 2000: Cell Mol Biol, 46: 777-783; Atwood et al., 2004: Biochemistry, 43: 560-568). In this experiment, Aβ (5 uM) is incubated with Cu+2 (25 μM) and 0-1000 μM of the modified peptides at 37 C for 24 hours. After the incubation period, 20 ng is loaded onto an SDS-PAGE gel and immunoblotted with WO2 antibody. Compared to the reverse peptide control, all the modified peptides inhibited the generation of Aβ oligomers at various concentration.

Another series deals with human Aβ42. Description: MTS cell viability assay of MP2 analogues, cells treated with human Aβ42 (20 μM). As to conditions: peptide 400 μM. It is filed as cell-based. The procedure:
FIG. 7 illustrates the effect of various peptide analogues of the peptide analogue of SEQ ID NO:2 on cell viability associated with human Aβ1-42. Cells were treated with human Aβ42 peptide (20 μM) in the absence or presence of increasing doses of MP2, MP4, MP5 or MP6 (n=6, for each peptide). Cell viability was assessed by the MTS assay.
Cells were treated with human Aβ42 peptide (20 μM) in the absence or presence of increasing doses of MP2, MP4, MP5 or MP6 (n=6, for each peptide). Cell viability was assessed by the MTS assay.
In general terms: Tetrazolium dyes change colour on reduction, which living cells bring about.

For a further series, the system named is M17 Neuroblastoma cells. Description: MTS cell viability assay, cell death induced by human Aβ1-42 (40 μM). As to conditions: for reduction of cell death associated with human Aβ1-42: Aβ1-42 40 μM. It is filed as cell-based. The procedure: M17 Neuroblastoma cells were seeded in a 48 well plate at a density of 50,000 cells per well. The plate was incubated for 24 hours at 37° C. in media (OPTI-MEM) containing 10% FCS. The next day the cells were treated with human Aβ1-42 (40 μM) in the presence or absence of the peptides 15merTNP or peptide analogue MP2 (FIG. 2). The peptides were provided at concentrations ranging from 20-400 μM prepared in Neuro basal media containing B27 supplement without antioxidants. Following incubation (4 days at 37° C.), cell viability was assessed using the CellTiter 96® AQueous One Solution cell proliferation assay (MTS; Promega, Wis., USA) as per manufactures instructions. Briefly, 200 μl of MTS reagent (1/10 dilution) was added directly to the culture wells and the plate incubated for 3 hours at 37° C. Following incubation, 150 μl of the solution was transferred to a 96 well plate and the absorbance is determined spectrophotometrically at 490 nm.
Similar to the MTT assay, the MTS assay is a colorimetric method for determining the number of viable cells in proliferation or cytotoxicity assays. The principle of the MTS assay is the same as the MTT assay, except for the tetrazolium compound that is bio-reduced by the mitochondria of the cells, forming a coloured formazan product that is soluble (rather than insoluble for the MTT assay) in tissue culture medium. This conversion is accomplished by NADPH or NADH produced by dehydrogenase enzymes in metabolically active cells: Berridge M V. And Tan A. S. (1993) Characterisation of the cellular reduction of 3-(4,5-dimethylthiazol-2-yl)-2,5-diphenyltetrazolium bromide (MTT): Subcellular localisation, substrate dependence and involvement of mitochondrial electron transport in MTT reduction. Arch. Biochem. Biophys. 303, 474-82.
The effect of human Aβ1-42 (40 μM) on cell viability was determined in triplicate in each of the 10 MTS assays (i.e. n=30) performed in this study. All data are presented as means±SEM.
The effect of peptide analogue MP2 to protect against human Aβ42-induced toxicity was then determined using the MTS assay in triplicate in two separate experiments for all doses (i.e. n=6), unless otherwise specified. The effectiveness of MP2 was compared against the 15merTNP.

For series [1], the target named is T1, human Aβ1-42 (Homo sapiens, UniProt P05067). Description: DCF fluorescence assay of H2O2 production (SOD-like activity) by human Aβ1-42. It is filed as biochemical. Particulars: 200 nM peptide, Aβ1-42 200 nM. On the procedure: The three candidate peptides (15merTNP, 6merPLP and 6merMTM) were examined to determine whether they could attenuate Aβ's SOD-like activity in vitro. A DCF fluorescence assay was used to assess the efficacy of these peptides on altering the production of physiological (brain) concentrations (200 nM) of human Aβ1-42.
Aβ species were prepared and the assay run as described previously (i.e. Aβ1-42 at 200 nM and Copper and Dopamine concentrations remain unchanged). Peptide analogue MP2 (SEQ ID NO:2) was added to Aβ1-42+Cu solutions at ratios ranging from 0.005:1 to 10.0:1 (i.e. a ration of 0.005:1 would contain 1 nM of respective peptide). The peptide was dissolved in PBS pH7.5. The effect of MP2 on H2O2 production by human Aβ1-42 was determined in triplicate in three separate experiments (i.e. n=9) for doses ranging from 100 to 2000 nM (FIG. 1). These were compared against the level of H2O2 produced by human Aβ1-42 [test peptide analogue MP2+positive control peptide 15merTNP; three experiments done in triplicate, […]]. All data are presented as means±SEM.
For all assays run, the 15merTNP peptide (SEQ ID NO: 3), was included as a positive control for the assay and for comparing its activity with that of the modelled peptide analogue MP2. The effect of 15merTNP (200 nM) on H2O2 production by human Aβ1-42, was determined in triplicate in each of the 12 DCF assays (i.e. n=36) performed in this study.

Details of series [2]: species or system mice (129×1 strain). As to conditions: mouse, in vivo. The procedure:
Another essential requirement of drug development is the ability of the peptide to cross the BBB and impact on targeted tissue. To measure the ability of 15merTNP and peptide analogue MP2 to cross the BBB, intracerebroventricular (i.c.v) delivery was assessed. The use of i.c.v injections on animal models allows for high doses to be delivered straight to the ventricular spaces where it can cross the parenchyma layer to the brain matter.
For i.c.v injections, control mice (129×1 strain) were anesthetized with intraperitoneal ketamine/xylazine at a dose of 10 ml/kg and then administered with 200 μg of either peptide (90 nmol). Both radioactive (^3H-labelled; hot) and non-radioactive (cold) was used to allow physiological doses of peptide to be delivered.
To determine whether the peptides had effectively penetrated into the brain parenchyma, a capillary depletion experiment was performed. After 25 min post injection the animal was sacrificed and the brain removed. This was homogenized and centrifuged for 10 min at 13000 rpm at 4° C. resulting in a supernatant containing predominately radioactivity from the cortex and a pellet with radioactivity from the capillaries and endothelium. A comparison of radioactivity in each sample was conducted to assess percentage of peptide movement into the cortex. The amount of radioactivity in the capillary pellet of mice that were perfused and not perfused with saline solution was compared to determine the percentage of peptide bound to the luminal surface of the capillaries and sequestered by brain endothelial cells.
A detailed necropsy was performed on each animal following perfusion to thoroughly assess peptide movement throughout peripheral organs, central nervous tissue and blood. […] Thus the concentration of labelled tritium could be measured per mass of sample and using this and the known ratio of non-labelled peptide present, the concentration of total peptide could be determined.
The pharmacokinetic profile of peptide analogue MP2 over four time points, post i.c.v injection into the CNS was determined. […]

In series [3] the target is T1, human Aβ1-42. Particulars: DCF fluorescence assay, 200 nM human Aβ1-42; earlier work PCT/AU02/01754; cited from earlier work.
Series [4] is described as follows: In vitro peptide stability in 10% rodent brain homogenate. It counts as in vitro ADME, rat. Particulars: 10% brain homogenate, 37° C. The procedure:
For the peptide stability assay in vitro, both 15merTNP and peptide analogue MP2 were incubated separately with fresh 10% rodent brain homogenate to model degradation in tissues. In order to create a physiological dose of peptide in the in vitro assay, both radioactive (^3H-labelled; hot) and non-radioactive (cold) peptides were combined in a set ratio. Cold peptide was added at a dose of […] per ml of 10% brain homogenate. Hot peptide was added at a dose of 250 μCi per ml 10% brain homogenate. Following the addition of hot and cold peptide; the homogenate was vortexed and incubated for different time points. The reaction was stopped by adding complete protease inhibitor cocktail and the samples analysed.
The biological stability of the peptides was evaluated by incubating them (90 nmol) in fresh 10% rodent brain homogenate for different times at 37° C. The amount of intact peptide was estimated by running the supernatant of the homogenate on a 16% Tricine gel to separate peptide that had not had its amino acid sequence degraded. FIG. 3 illustrates the relative stability of 15merTNP and peptide analogue MP2 over two hours run on a 16% Tricine gel from time 0-120 min with samples run in duplicate. The values correspond to the in vitro half-life, which is defined as the time needed for 50% degradation of the peptide.

Square brackets hold non-standard residues; d marks the D form.

T1 sequence (P05067 672-713): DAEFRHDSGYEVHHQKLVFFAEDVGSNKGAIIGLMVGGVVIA
Chain of Aβ (P05067 672-713 limits assumed): as the sequence (P05067 672-713) above

Regarding “Ac-Arg-Thr-Pro-Gln-Met-Leu-Lys-NH2 (Ac-RTPQMLK-NH2) [MP4]”, the “inhibition of Aβ oligomer formation” value with Aβ is “most potent”.
“Ac-DArg-DLys-DLeu-DMet-DGln-DPro-DThr-DArg-DAsn-NH2 (Ac-[dR][dK][dL][dM][dQ][dP][dT][dR][dN]-NH2; SMILES CSCC[C@@H](NC(=O)[C@@H](CC(C)C)NC(=O)[C@@H](CCCCN)NC(=O)[C@@H](CCCNC(=N)N)NC(C)=O)C(=O)N[C@H](CCC(N)=O)C(=O)N1CCC[C@@H]1C(=O)N[C@@H](C(=O)N[C@H](CCCNC(=N)N)C(=O)N[C@H](CC(N)=O)C(N)=O)[C@H](C)O) [MP6]”: in the series with human Aβ42, the “cell viability following treatment with human Aβ42” value is “significantly increased”.
Regarding “Ac-Thr-Arg-Thr-Pro-Gln-Met-Leu-Arg-Lys-NH2 (Ac-TRTPQMLRK-NH2) [MP5]”, in the series with Aβ, the “inhibition of Aβ oligomer formation” value was “most potent”. Further, the “cell viability following treatment with human Aβ42” value in the series with human Aβ42 is “significantly increased”.
A word on the half-life: it is the time needed for the level to fall by half in the phase considered. Read a high half-life as slow decline. With “H-TNPNRRNRTPQMLKR-OH [15merTNP, Thr-Asn-Pro-Asn-Arg-Arg-Asn-Arg-Thr-Pro-Gln-Met-Leu-Lys-Arg, reference compound]”, the “reduction of cell death associated with human Aβ1-42” value in the series with M17 Neuroblastoma cells (80 μM peptide) worked out at 20%; in the series on M17 Neuroblastoma cells (200 μM peptide), 30%. On human Aβ1-42 [1], the “reduction of human Aβ1-42's H2O2 production” value is listed as “around 30%”. The “crossing of the blood brain barrier” value in series [2] was “poorly”. The “ability to modify Aβ1-42's SOD-like activity” value at human Aβ1-42 [3] is given as “possessed the ability to modify Aβ1-42's SOD-like activity”. Besides, the “Stability in rat brain homogenate (in vitro half-life)” value in series [4] is recorded as <45 min. Moreover, in series [4] (rat, fresh 10% brain homogenate), the half-life at 2.5 mmol per ml is < 45 min.
“human Aβ1-42: beta amyloid peptide used as toxic agent in the cell viability assays [reference compound]”: the “reduction of cell viability” value in the series on M17 Neuroblastoma cells (human Aβ1-42 40 μM alone, 4 days) is ≤ 35%.
